Measurements reported in PMC8176454, “Synthesis and Assessment of Novel Probes for Imaging Tau Pathology in Transgenic Mouse and Rat Models” (ACS Chemical Neuroscience, 2021).

Target: tau aggregates in human globus pallidus/putamen from PSP subjects (Homo sapiens, UniProt P10636)
Test: Staining of post-mortem PSP brain tissue
Conditions: colocalized with AT8
Protocol: To further validate LM229 as a potential radiotracer for translational research, we investigated its binding to tau aggregates in human globus pallidus/putamen from progressive supranuclear palsy (PSP) subjects (Figure 7) and its selectivity for tau over β-amyloid pathology in AD frontal cortex sections (Figure 8). […]
buffer) for 1 h at room temperature. Following 3 washes in PBS/0.1% Triton X-100, 50 µM LM229 (diluted in 1:1 blocking buffer/ethanol) was then added for 1 h at room temperature. Nuclei were stained with DAPI (0.1mg/ml for 10 min), washed and tissues mounted in FluorSaveTM prior to analysis using fluorescence […]
Binding affinity of all compounds with tau fibrils
Microscale Thermophoresis was first used to screen whether there were interaction between the compounds and tau fibrils. […] With each compound, two concentrations (1µM and 1nM) were used to mix with 100nM tau fibrils and then loaded to the MST instrument to read out the MST data curve. […]
DRG were incubated with the indicated concentrations of LM229 or PBB3 for 20 minutes at room temperature, washed 3 times in PBS, and imaged on a Leica DMI 4000B microscope using a Leica DFC3000 G camera and the Leica application suite 4.0.0.11706. Fluorescence intensity was measured in 10-16 neurons each from 3 independent cultures using Image J (imagej.nih.gov/ij/). […]

Chain of tau aggregates in human globus pallidus/putamen from PSP subjects (P10636 561-698 limits assumed): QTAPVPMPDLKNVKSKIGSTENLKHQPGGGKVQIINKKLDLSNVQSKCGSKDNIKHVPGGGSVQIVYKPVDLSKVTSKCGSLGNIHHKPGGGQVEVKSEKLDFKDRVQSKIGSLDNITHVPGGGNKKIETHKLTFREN

Signal on PSP sections: intense signal
SMILES: CNc1ccc(/C=C/C=C/c2nc3cc(F)c(O)cc3s2)cn1 [LM229]
